Where “and” joins values, the source holds several entries; their conditions need not be identical. Identical values can stand only once. Entries after “also recorded” stand apart in the source; their conditions may differ. Like-named read-outs stand apart in the source and are kept apart here.
Columns and labels:
recombinant human EYA3 [1] = target: T1, recombinant human EYA3 (Homo sapiens, UniProt Q99504); assay: pNPP hydrolysis by EYA3 (tyrosine phosphatase enzyme assay); type: biochemical; settings: for IC50: recombinant human EYA3, substrate pNPP, read-out: IC50 (95% confidence intervals), pNPP hydrolysis by EYA3
T1 construct: a splice variant of Q99504 corresponding to isoform 2 and missing residues 1 - 126; made in house
T1 sequence (Q99504 1-447 isoform Q99504-2): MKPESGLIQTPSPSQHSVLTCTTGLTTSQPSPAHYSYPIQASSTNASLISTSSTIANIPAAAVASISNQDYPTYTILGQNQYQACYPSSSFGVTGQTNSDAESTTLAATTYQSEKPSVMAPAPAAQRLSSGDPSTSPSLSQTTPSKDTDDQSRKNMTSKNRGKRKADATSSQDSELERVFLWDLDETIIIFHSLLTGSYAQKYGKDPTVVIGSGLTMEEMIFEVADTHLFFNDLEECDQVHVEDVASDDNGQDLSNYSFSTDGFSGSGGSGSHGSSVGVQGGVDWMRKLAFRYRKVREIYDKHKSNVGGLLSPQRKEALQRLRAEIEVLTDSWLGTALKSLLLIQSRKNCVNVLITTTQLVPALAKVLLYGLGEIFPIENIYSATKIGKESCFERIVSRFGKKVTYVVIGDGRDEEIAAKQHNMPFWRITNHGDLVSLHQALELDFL
Procedure: Purification of recombinant EYA3 has been reported previously. Assays using the colorimetric substrate p-nitrophenylphosphate were conducted as previously reported.
Enzymatic assays were conducted using recombinant human EYA3 (a splice variant of Q99504 corresponding to isoform 2 and missing residues 1 - 126) purified as described. The chromogenic substrate para-nitrophenylphosphate (pNPP) was used to measure catalytic activity of EYA3. […] To assay potential EYA inhibitors, the compounds were pre-incubated with EYA3, pNPP added, and the formation of the p-nitrophenolate product measured. […] In addition, an ex vivo examination of sprouting angiogenesis was conducted using the aortic ring assay.

HUVECs [2] = assay: HUVEC proliferation / cell viability assay (WST-8); type: cell-based, human; settings: for effect on cell viability / proliferation: 72 hours
Procedure: 75% confluent HUVECs (<passage 8) were washed with PBS and trypsinized, deactivated with 10% FBS, spun down and counted. 1000 cells/well were seeded in triplicate in 100 μl EGM-2 complete medium either with inhibitors (in 0.2% DMSO) or vehicle alone (0.2% DMSO). After 0 hrs, 24 hrs, 48 hrs, 72 hrs of incubation at 37°C in […] 10 μl WST-8 was added to each well and incubated for 2 hours in the dark, at 37°C, […]. Absorption was read at 450 nm. Fold change was calculated as the ratio of the OD450 at the experimental time point and at the start of the experiment (0 hours).
A cell viability assay was conducted over 3 days of exposure to the test compounds in order to assess both the possibility of immediate cellular toxicity as well as any effect on cell proliferation. HUVECs were seeded and equilibrated for 24 hours before addition of the test compounds. Cellular metabolic activity was measured at defined time-points using the tetrazolium dye WST-8 to quantify NAD(P)H-dependent cellular oxidoreductase enzyme activity.
Figure 2 Proliferation of HUVECs in the presence of 7.5 μM test compounds. Cell viability was measured at 72 hours post-seeding. Asterisk represents significant differences between groups (*** P<0.001, * P<0.05).

recombinant human EYA3 [3] = target: T1, recombinant human EYA3; settings: recombinant EYA3, substrate pNPP; reported previously; read-out: IC50 (95% confidence intervals), pNPP hydrolysis by EYA3; cited from earlier work
HUVECs [4] = settings: cited from earlier work
HUVECs [5] = assay: Scratch wound healing (cell migration) assay; type: cell-based, human
Procedure: 10^5 HUVECs/well were seeded on 24-well plates and cultured until they reached confluency in EGM-2. The monolayers were then scratch-wounded using a 200 μl pipette tip, washed with PBS, and incubated with EGM-2 complete medium and either EYA Inhibitors or vehicle control (0.2% DMSO). Wounds were photographed immediately upon insult, and at various time-points following wounding using a phase-contrast microscope. The number of cells that migrated into the cleared area was counted using the Cell Counter function of ImageJ [20].
The effect of the test compounds on cell migration was assessed using a scratch wound healing assay and HUVEC cells. Cells were plated and grown to confluency. Scratch wounds were made using a sterile pipette tip, the medium changed to remove any cellular debris, and fresh medium with either vehicle or test compound was introduced. The number of cells that migrated into the cleared space was counted 22 hours later. […] Previous experiments had shown a role for EYA3 in trans-well migration of HUVECs. […] Lentiviral shRNA targeting EYA3 in HUVECs led to greater than 80% reduction in EYA3 protein levels (Figure 4A).
Figure 3 Lateral migration of HUVECs in the presence of test compounds. […] (B) Number of cells that migrate into the wounded area was counted using the Cell Counter functionality of ImageJ. […]

HUVECs [6] = assay: Tubulogenesis assay on growth-factor reduced Matrigel; type: cell-based, human
Procedure: Growth factor reduced Matrigel was thawed overnight on ice at 4°C. 40 μl Matrigel was added to each well of a 96-well plate and incubated for 30 mins to polymerize. 10,000 cells in 100 μl EGM-2 complete medium with either inhibitors or vehicle control (0.2% DMSO) were added to each well. Plates were incubated for 24 hours at 37°C, 5% CO2 and then photographed at 5X magnification. Tube length was measured using the NeuronJ plugin [21] for the NIH ImageJ software.
Primary endothelial cells (ECs) on basement membrane rapidly attach, align themselves and form capillary-like tubules with lumens and tight cell-cell contacts. […] To better understand the stage in matrigel tube-formation affected by 6OH-BBR we followed cells plated on growth-factor reduced matrigel and treated with either vehicle or 6OH-BBR (Figure 5C). Differences become apparent within the first two hours and are clearly visible at the 6-hour time-point. The ECs are much less organized in the presence of 6OH-BBR.
(A) Representative phase-contrast images of HUVECs plated on growth-factor reduced Matrigel in the presence of the indicated doses of test compounds, photographed 16 hours after plating. (B) Quantitation of the number of tube-like structures formed by HUVECs in the presence of test compounds. The number of tubes was measured using NeuronJ. […]

[7] = system: aortic ring explants from C57BL/6 mice; assay: Aortic ring sprouting assay (ex vivo); settings: mouse aortic rings in collagen, initially 7.5 μM, 10-day treatment
Procedure: The preparation of rat collagen and the aortic ring assay were carried out as previously described. Briefly, aortic ring explants were obtained from C57BL/6 mice aged 4 to 6 weeks and cultured at 37°C in a humidified incubator under a 5% CO2 atmosphere in serum-free EBM. Within 30 minutes of dissection the rings were placed in a 3D collagen matrix supported by a UV-sterilized nylon mesh ring with inner and outer diameters of 3 mm and 5.6 mm, respectively. The matrix was prepared by mixing 8 parts of collagen solution, 1 part of 10x M199 and 1 part of 23.4mg/ml NaHCO3. After another 30 min incubation at 37°C, the assembly was transferred into a well of 96-well plate filled with 150 μl of culture medium; either control medium consisting of 0.1% DMSO in EBM, 2.5% FBS, penicillin/streptomycin and 20ng/ml VEGF165 or the test inhibitor dissolved in the control medium. Each compound was applied over a 10-day period with medium changes every two days. […]
This assay allows for analysis of cell proliferation, migration, tube formation, micro-vessel branching, and perivascular recruitment. […] All the test compounds were initially assayed at 7.5 μM and the number of branch-points counted. […]
Figure 6 Effect of test compounds on aortic ring sprouting. […] (B) Quantitation of the number of sprouts per ring with each bar representing at least 4 rings. *** P<0.001, ** P<0.01, * P<0.05, ns not significant).

[8] = cited from earlier work; for half-life: as previously reported; for maximal plasma concentration: single oral dose of 100 mg
[9] = parameters: method as in PMID 22398967; settings: cited from earlier work

## Cc1oc2ccccc2c1C(=O)c1ccc(O)cc1 [DMBZ]
Recombinant human EYA3 [1]
  IC50: 135 µM

## CC(O)c1oc2ccccc2c1C(=O)c1cc(Br)c(O)c(Br)c1 (centres unmarked) [1’OH-BBR, 1’-hydroxybenzbromarone]
Recombinant human EYA3 [1]
  IC50: 52.5 µM

## CCc1oc2ccc(O)cc2c1C(=O)c1ccc(O)cc1 [Compound 5OH-BZ]
Recombinant human EYA3 [1]
  IC50: > 150 µM

## CCc1oc2ccccc2c1C(=O)c1ccc(O)cc1 [BZ, Benzarone, reference compound]
HUVECs [2]; 7.5 μM test compound
  effect on cell viability / proliferation: reduced cell viability; also recorded: significant inhibition of cell proliferation
Recombinant human EYA3 [3]
  IC50: 17.5 µM
HUVECs [4]
  effect on proliferation of HUVECs in the first 24 hours: does not influence proliferation

## CCc1oc2ccc(O)cc2c1C(=O)c1cc(Br)c(O)c(Br)c1 [Compound 5OH-BBR, 5-hydroxy benzbromaorne]
Recombinant human EYA3 [1]
  IC50: 49.4 µM

## CCc1oc2cc(O)ccc2c1C(=O)c1cc(Br)c(O)c(Br)c1 [Compound 6OH-BBR, 6-hydroxybenzbromarone]
Recombinant human EYA3 [1]; EYA3 inhibition in vitro
  IC50 relative to BBR: over twice
Recombinant human EYA3 [1]
  IC50: 21.5 µM
HUVECs [2]; 7.5 μM test compound, 72 hours post-seeding
  reduction in cell proliferation: over 50%
HUVECs [2]; 24 hours
  effect on cell proliferation at the 24-hour time-point: attenuated cell proliferation
HUVECs [5]; 7.5 μM test compound, 22 hours after wounding
  reduction of cell migration: ~80%
HUVECs [6]
  inhibition of tube formation (in words): much stronger inhibitory effect than BZ
[7]
  attenuation of aortic ring sprouting (in words): most potent inhibitor
[8]
  half-life: 30 h

## CCCCc1oc2ccccc2c1C(=O)c1cc(I)c(O)c(I)c1 [ODAA]
Recombinant human EYA3 [1]
  IC50: 3.1 µM
HUVECs [2]; 7.5 μM test compound
  effect on cell viability / proliferation: small but significant positive effect on cell proliferation
HUVECs [5]
  inhibition of cell migration (in words): relatively weak inhibitor
HUVECs [6]
  inhibition of tube formation (in words): relatively weak inhibitor
[9]
  fraction bound to plasma protein: ~ 99.9%

## Cc1oc2ccccc2c1C(=O)c1cc(I)c(O)c(I)c1 [BZI]
Recombinant human EYA3 [1]
  IC50: 8.9 µM

## CC(O)CCc1oc2ccccc2c1C(=O)c1cc(I)c(O)c(I)c1 (centres unmarked) [OH-ODAA]
Recombinant human EYA3 [1]
  IC50: 16.4 µM

## Cc1oc2ccccc2c1C(=O)c1ccc(O)c(I)c1 [DIBZI]
Recombinant human EYA3 [1]
  IC50: 20.5 µM
HUVECs [2]; 7.5 μM test compound
  effect on cell viability / proliferation: small but significant positive effect on cell proliferation

## CCc1oc2ccccc2c1C(=O)c1cc(Br)c(O)c(Br)c1 [BBR, Benzbromarone]
HUVECs [2]; 7.5 μM test compound
  effect on cell viability / proliferation: reduced cell viability; also recorded: significant inhibition of cell proliferation
HUVECs [4]
  effect on proliferation of HUVECs in the first 24 hours: does not influence proliferation
[8]
  half-life: 3 h
[8]; rapid eliminators
  maximal plasma concentration: 3.9 μg/ml and ~ 9.2 μM
[8]; slow eliminator
  maximal plasma concentration: 9.17 μg/ml and ~ 21.8 μM

Source: article PMC3867503 (PLoS ONE, 2013)
